Drawing on the supplement of paper PMC10307832, this text covers relative viability for eight cell lines.

Common to all, as to assay: relative viability (nuclei count vs DMSO), 5 days (fraction); higher = more cells survive
Compound in the experiment “RO-3306 + Luminespib”: C1=CC2=C(C=CC(=C2)C=C3C(=O)NC(=NCC4=CC=CS4)S3)N=C1 [RO-3306] + CCNC(=O)c1noc(-c2cc(C(C)C)c(O)cc2O)c1-c1ccc(CN2CCOCC2)cc1 [Luminespib] (partner 0.01 µM)
In short, it runs like this:
(§1)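 Values are medians from duplicate plates. Each reflects relative viability, defined as the nuclei count of treated wells over that of vehicle wells. Lung cancer cell lines in 1536-well plates were pin-tool dosed one day after seeding with one drug alone or with a fixed anchor-drug dose plus five library-drug doses (not always all listed) in √10 steps, then fixed, stained and imaged at 4× after 5 days.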

Compound in the experiment “RO-3306 + OSI-027”: C1=CC2=C(C=CC(=C2)C=C3C(=O)NC(=NCC4=CC=CS4)S3)N=C1 [RO-3306] + COc1cccc2cc(-c3nc([C@H]4CC[C@H](C(=O)O)CC4)n4ncnc(N)c34)[nH]c12 [OSI-027] (partner 0.5 µM)
Put shortly: as §1

Compound in the experiment “RO-3306 + Lapatinib”: C1=CC2=C(C=CC(=C2)C=C3C(=O)NC(=NCC4=CC=CS4)S3)N=C1 [RO-3306] + CS(=O)(=O)CCNCc1ccc(-c2ccc3ncnc(Nc4ccc(OCc5cccc(F)c5)c(Cl)c4)c3c2)o1 [Lapatinib] (partner 2 µM)
Put shortly: as §1

Compound in experiment [1]: O=S(=O)(c1ccccc1)N(CC(F)(F)F)c1ccc(C(O)(C(F)(F)F)C(F)(F)F)cc1 + CC(=O)c1c(C)c2cnc(Nc3ccc(N4CCNCC4)cn3)nc2n(C2CCCC2)c1=O [Palbociclib] (partner 0.5 µM)
In short, it runs like this: as §1

In the case of RERF-LC-KJ, the relative viability came to 1.15 with RO-3306 + Luminespib (first compound 0.01 µM); 1.41 in the experiment with RO-3306 + Luminespib (first compound 0.03162 µM); 1.17 in the experiment with RO-3306 + Luminespib (first compound 0.1 µM); 1.45 in the experiment with RO-3306 + Luminespib (first compound 0.3162 µM); 0.99 with RO-3306 + Luminespib (first compound 1 µM); 0.632 with RO-3306 + OSI-027 (first compound 0.01 µM). In addition, the relative viability was determined as 0.53 in the experiment with RO-3306 + OSI-027 (first compound 0.03162 µM); 0.556 in the experiment with RO-3306 + OSI-027 (first compound 0.1 µM); 0.598 with RO-3306 + OSI-027 (first compound 0.3162 µM); 0.556 with RO-3306 + OSI-027 (first compound 1 µM); 0.861 with RO-3306 + Lapatinib (first compound 0.01 µM); 0.842 with RO-3306 + Lapatinib (first compound 0.03162 µM). For the same cell line, the relative viability was 0.828 with RO-3306 + Lapatinib (first compound 0.1 µM); 0.864 with RO-3306 + Lapatinib (first compound 0.3162 µM); 0.702 with RO-3306 + Lapatinib (first compound 1 µM); 1.1 in experiment [1] (first compound 0.8 µM); 0.909 in experiment [1] (first compound 2.53 µM); 0.905 in experiment [1] (first compound 8 µM).

As to NCI-H1793, the relative viability with RO-3306 + Luminespib (first compound 0.01 µM) is 0.129; in the experiment with RO-3306 + Luminespib (first compound 0.03162 µM), 0.162; in the experiment with RO-3306 + Luminespib (first compound 0.1 µM), 0.195; with RO-3306 + Luminespib (first compound 0.3162 µM), 0.205; with RO-3306 + Luminespib (first compound 1 µM), 0.191; with RO-3306 + OSI-027 (first compound 0.01 µM), 0.266. Besides, the relative viability with RO-3306 + OSI-027 (first compound 0.03162 µM) worked out at 0.277; in the experiment with RO-3306 + OSI-027 (first compound 0.1 µM) it was 0.291; in the experiment with RO-3306 + OSI-027 (first compound 0.3162 µM), 0.251; in the experiment with RO-3306 + OSI-027 (first compound 1 µM), 0.262; with RO-3306 + Lapatinib (first compound 0.01 µM), 0.794; in the experiment with RO-3306 + Lapatinib (first compound 0.03162 µM), 0.409. For the same cell line, the relative viability came out at 0.641 in the experiment with RO-3306 + Lapatinib (first compound 0.1 µM); 0.753 with RO-3306 + Lapatinib (first compound 0.3162 µM); 0.636 with RO-3306 + Lapatinib (first compound 1 µM); 0.258 in experiment [1] (first compound 0.8 µM); 0.22 in experiment [1] (first compound 2.53 µM); 0.258 in experiment [1] (first compound 8 µM).

For the cell line NCI-H1944, the relative viability in the experiment with RO-3306 + Luminespib (first compound 0.01 µM) stood at 0.83; in the experiment with RO-3306 + Luminespib (first compound 0.03162 µM) it was 0.667; with RO-3306 + Luminespib (first compound 0.1 µM) it was 0.681; with RO-3306 + Luminespib (first compound 0.3162 µM) it was 0.62; in the experiment with RO-3306 + Luminespib (first compound 1 µM), 0.678; with RO-3306 + OSI-027 (first compound 0.01 µM), 0.399. Moreover, the relative viability with RO-3306 + OSI-027 (first compound 0.03162 µM) turned out to be 0.366; in the experiment with RO-3306 + OSI-027 (first compound 0.1 µM), 0.361; with RO-3306 + OSI-027 (first compound 0.3162 µM), 0.394; with RO-3306 + OSI-027 (first compound 1 µM) it was 0.335; in the experiment with RO-3306 + Lapatinib (first compound 0.01 µM), 0.774; in the experiment with RO-3306 + Lapatinib (first compound 0.03162 µM), 0.674. Further, the relative viability with RO-3306 + Lapatinib (first compound 0.1 µM) amounted to 0.802; with RO-3306 + Lapatinib (first compound 0.3162 µM) it was 0.909; with RO-3306 + Lapatinib (first compound 1 µM), 0.545; in experiment [1] (first compound 0.8 µM) it was 0.342; in experiment [1] (first compound 2.53 µM), 0.303; in experiment [1] (first compound 8 µM) it was 0.332.

As for BEN, the relative viability with RO-3306 + Luminespib (first compound 0.01 µM) turned out to be 0.331; with RO-3306 + Luminespib (first compound 0.03162 µM) it was 0.337; with RO-3306 + Luminespib (first compound 0.1 µM), 0.33; with RO-3306 + Luminespib (first compound 0.3162 µM), 0.4; in the experiment with RO-3306 + Luminespib (first compound 1 µM) it was 0.447; with RO-3306 + OSI-027 (first compound 0.01 µM), 0.333. For the same cell line, the relative viability with RO-3306 + OSI-027 (first compound 0.03162 µM) was found to be 0.3; in the experiment with RO-3306 + OSI-027 (first compound 0.1 µM), 0.256; in the experiment with RO-3306 + OSI-027 (first compound 0.3162 µM), 0.297; in the experiment with RO-3306 + OSI-027 (first compound 1 µM), 0.283; with RO-3306 + Lapatinib (first compound 0.01 µM), 0.726; in the experiment with RO-3306 + Lapatinib (first compound 0.03162 µM), 0.759. Moreover, the relative viability with RO-3306 + Lapatinib (first compound 0.1 µM) is 0.754; with RO-3306 + Lapatinib (first compound 0.3162 µM) it was 0.8; with RO-3306 + Lapatinib (first compound 1 µM) it was 0.744; in experiment [1] (first compound 0.8 µM), 0.506; in experiment [1] (first compound 2.53 µM) it was 0.504; in experiment [1] (first compound 8 µM) it was 0.454.

Turning to ABC-1, the relative viability with RO-3306 + Luminespib (first compound 0.01 µM) was determined as 0.548; with RO-3306 + Luminespib (first compound 0.03162 µM) it was 0.719; in the experiment with RO-3306 + Luminespib (first compound 0.1 µM), 0.527; with RO-3306 + Luminespib (first compound 0.3162 µM), 0.658; in the experiment with RO-3306 + Luminespib (first compound 1 µM) it was 0.898; with RO-3306 + OSI-027 (first compound 0.01 µM) it was 0.411. Also, the relative viability in the experiment with RO-3306 + OSI-027 (first compound 0.03162 µM) came out at 0.375; with RO-3306 + OSI-027 (first compound 0.1 µM) it was 0.402; in the experiment with RO-3306 + OSI-027 (first compound 0.3162 µM), 0.483; with RO-3306 + OSI-027 (first compound 1 µM), 0.403; with RO-3306 + Lapatinib (first compound 0.01 µM) it was 1.25; with RO-3306 + Lapatinib (first compound 0.03162 µM) it was 1.28. Moreover, the relative viability with RO-3306 + Lapatinib (first compound 0.1 µM) was 1.17; with RO-3306 + Lapatinib (first compound 0.3162 µM) it was 1.16; with RO-3306 + Lapatinib (first compound 1 µM) it was 1.05; in experiment [1] (first compound 2.53 µM), 0.656; in experiment [1] (first compound 8 µM), 0.714.

H3255: the relative viability with RO-3306 + Luminespib (first compound 0.01 µM) amounted to 0.899; with RO-3306 + Luminespib (first compound 0.03162 µM), 0.938; with RO-3306 + Luminespib (first compound 0.1 µM), 0.763; with RO-3306 + Luminespib (first compound 0.3162 µM) it was 0.837; with RO-3306 + Luminespib (first compound 1 µM), 0.866; in the experiment with RO-3306 + OSI-027 (first compound 0.01 µM), 0.671. Further, the relative viability in the experiment with RO-3306 + OSI-027 (first compound 0.03162 µM) worked out at 0.476; with RO-3306 + OSI-027 (first compound 0.1 µM) it was 0.604; in the experiment with RO-3306 + OSI-027 (first compound 0.3162 µM), 0.594; in the experiment with RO-3306 + OSI-027 (first compound 1 µM), 0.504; with RO-3306 + Lapatinib (first compound 0.01 µM), 0.236; in the experiment with RO-3306 + Lapatinib (first compound 0.03162 µM) it was 0.227. The relative viability in the experiment with RO-3306 + Lapatinib (first compound 0.1 µM) was found to be 0.245; with RO-3306 + Lapatinib (first compound 0.3162 µM) it was 0.26; in the experiment with RO-3306 + Lapatinib (first compound 1 µM) it was 0.26; in experiment [1] (first compound 0.8 µM) it was 0.319; in experiment [1] (first compound 2.53 µM) it was 0.313; in experiment [1] (first compound 8 µM) it was 0.28.

With NCI-H1355, the relative viability in the experiment with RO-3306 + Luminespib (first compound 0.01 µM) came to 0.888; with RO-3306 + Luminespib (first compound 0.1 µM), 0.68; with RO-3306 + Luminespib (first compound 0.3162 µM) it was 0.84; with RO-3306 + Luminespib (first compound 1 µM), 0.68; with RO-3306 + OSI-027 (first compound 0.01 µM), 0.379; with RO-3306 + OSI-027 (first compound 0.1 µM), 0.378. The relative viability with RO-3306 + OSI-027 (first compound 0.3162 µM) worked out at 0.375; with RO-3306 + OSI-027 (first compound 1 µM), 0.337; with RO-3306 + Lapatinib (first compound 0.01 µM) it was 1.15; with RO-3306 + Lapatinib (first compound 0.03162 µM), 0.926; in the experiment with RO-3306 + Lapatinib (first compound 0.1 µM) it was 0.973; in the experiment with RO-3306 + Lapatinib (first compound 0.3162 µM), 1.04. In addition, the relative viability was 0.886 in the experiment with RO-3306 + Lapatinib (first compound 1 µM), 0.377 in experiment [1] (first compound 0.8 µM), 0.42 in experiment [1] (first compound 2.53 µM) and 0.359 in experiment [1] (first compound 8 µM).

As to COR-L 105, the relative viability was found to be 1.07 with RO-3306 + Luminespib (first compound 0.01 µM); 0.885 with RO-3306 + Luminespib (first compound 0.03162 µM); 0.606 in the experiment with RO-3306 + Luminespib (first compound 0.1 µM); 0.65 in the experiment with RO-3306 + Luminespib (first compound 0.3162 µM); 0.547 with RO-3306 + Luminespib (first compound 1 µM); 0.589 with RO-3306 + OSI-027 (first compound 0.01 µM). For the same cell line, the relative viability with RO-3306 + OSI-027 (first compound 0.03162 µM) is 0.607; with RO-3306 + OSI-027 (first compound 0.1 µM), 0.64; with RO-3306 + OSI-027 (first compound 0.3162 µM) it was 0.864; with RO-3306 + OSI-027 (first compound 1 µM), 0.735; with RO-3306 + Lapatinib (first compound 0.01 µM), 0.34; with RO-3306 + Lapatinib (first compound 0.03162 µM), 0.351. Also, the relative viability with RO-3306 + Lapatinib (first compound 0.1 µM) was found to be 0.334; with RO-3306 + Lapatinib (first compound 0.3162 µM) it was 0.333; with RO-3306 + Lapatinib (first compound 1 µM), 0.314; in experiment [1] (first compound 0.8 µM) it was 0.328; in experiment [1] (first compound 2.53 µM), 0.411; in experiment [1] (first compound 8 µM), 0.378.
